# Columns and labels:
# Escherichia coli [1] = assay: Antimicrobial activity against Escherichia coli 25922 assessed as absence bacterial growth measured after 18 to 24 hrs incubation in presence of 12.5% serum by NCCLS method; type: functional; settings: time 18-24 hrs
# Escherichia coli [2] = assay: Antimicrobial activity against Escherichia coli 25922 assessed as absence bacterial growth measured after 18 to 24 hrs incubation in presence of 50% serum by NCCLS method; type: functional; settings: time 18-24 hrs
# [3] = tested on: Staphylococcus epidermidis; assay: Antimicrobial activity against Staphylococcus epidermidis 12228 assessed as bacterial killing measured after 16 hrs incubation; type: functional
# Listeria monocytogenes [4] = assay: Antimicrobial activity against Listeria monocytogenes 1.10753 assessed as absence bacterial growth measured after 18 to 24 hrs incubation by NCCLS method; type: functional; settings: time 18-24 hrs
# [5] = Cytotoxicity against mouse RAW264.7 cells assessed as cell survival rate measured after 8 hrs by MTT assay; type: toxicity, cell-based
# Escherichia coli [6] = assay: Antimicrobial activity against Escherichia coli 25922 assessed as absence bacterial growth measured after 18 to 24 hrs incubation in presence of 25% serum by NCCLS method; type: functional; settings: time 18-24 hrs
# Salmonella typhimurium [7] = assay: Antimicrobial activity against Salmonella typhimurium 14028 assessed as absence bacterial growth measured after 18 to 24 hrs incubation by NCCLS method; type: functional, Salmonella enterica subsp. enterica serovar Typhimurium; settings: Salmonella enterica, time 18-24 hrs
# Escherichia coli [8] = assay: Antimicrobial activity against Escherichia coli 25922 assessed as absence bacterial growth measured after 18 to 24 hrs incubation in presence of MgCl2 by NCCLS method; type: functional; settings: time 18-24 hrs
# Staphylococcus aureus [9] = assay: Antimicrobial activity against Staphylococcus aureus 29213 assessed as absence bacterial growth measured after 18 to 24 hrs incubation by NCCLS method; type: functional; settings: time 18-24 hrs
# Escherichia coli [10] = assay: Antimicrobial activity against Escherichia coli 25922 assessed as absence bacterial growth measured after 18 to 24 hrs incubation in presence of FeCl3 by NCCLS method; type: functional; settings: time 18-24 hrs
# Erythrocyte = assay: Hemolytic activity in human RBC at effective concentration measured after 1 hr by microplate reader analysis; type: toxicity, cell-based
# Bacillus cereus [11] = assay: Antimicrobial activity against Bacillus cereus 1.932 assessed as bacterial killing measured after 16 hrs incubation; type: functional
# Acinetobacter baumannii [12] = assay: Antimicrobial activity against Acinetobacter baumannii 1.6769 assessed as bacterial killing measured after 16 hrs incubation; type: functional
# Pseudomonas aeruginosa [13] = assay: Antimicrobial activity against Pseudomonas aeruginosa 27853 assessed as bacterial killing measured after 16 hrs incubation; type: functional
# [14] = tested on: Staphylococcus epidermidis; assay: Antimicrobial activity against Staphylococcus epidermidis 12228 assessed as absence bacterial growth measured after 18 to 24 hrs incubation by NCCLS method; type: functional; settings: time 18-24 hrs
# Bacillus cereus [15] = assay: Antimicrobial activity against Bacillus cereus 1.932 assessed as absence bacterial growth measured after 18 to 24 hrs incubation by NCCLS method; type: functional; settings: time 18-24 hrs
# Escherichia coli [16] = assay: Antimicrobial activity against Escherichia coli 25922 assessed as absence bacterial growth measured after 18 to 24 hrs incubation in presence of KCl by NCCLS method; type: functional; settings: time 18-24 hrs
# [17] = Antimicrobial activity against Salmonella pullorum C7913 assessed as bacterial killing measured after 16 hrs incubation; type: functional, Salmonella enterica subsp. enterica serovar Pullorum; settings: Salmonella enterica
# Escherichia coli [18] = assay: Antimicrobial activity against Escherichia coli 25922 assessed as absence bacterial growth measured after 18 to 24 hrs incubation in presence of NaCl by NCCLS method; type: functional; settings: time 18-24 hrs
# Salmonella typhimurium [19] = assay: Antimicrobial activity against Salmonella typhimurium 14028 assessed as bacterial killing measured after 16 hrs incubation; type: functional, Salmonella enterica subsp. enterica serovar Typhimurium; settings: Salmonella enterica
# Staphylococcus aureus [20] = assay: Antimicrobial activity against Staphylococcus aureus 29213 assessed as absence bacterial growth measured after 18 to 24 hrs incubation by NCCLS m; type: functional; settings: time 18-24 hrs
# Escherichia coli [21] = assay: Antimicrobial activity against Escherichia coli 25922 assessed as absence bacterial growth measured after 18 to 24 hrs incubation by NCCLS method; type: functional; settings: time 18-24 hrs
# [22] = Cytotoxicity against human HEK-293T cells assessed as cell survival rate measured after 8 hrs by MTT assay; type: toxicity, cell-based
# Acinetobacter baumannii [23] = assay: Antimicrobial activity against Acinetobacter baumannii 1.6769 assessed as absence bacterial growth measured after 18 to 24 hrs incubation by NCCLS method; type: functional; settings: time 18-24 hrs
# Salmonella typhimurium [24] = assay: Antimicrobial activity against Salmonella typhimurium C7731 assessed as bacterial killing measured after 16 hrs incubation; type: functional, Salmonella enterica subsp. enterica serovar Typhimurium; settings: Salmonella enterica
# [25] = Cytotoxicity against porcine IPEC-J2 cells assessed as cell survival rate measured after 8 hrs by MTT assay; type: toxicity, cell-based, Sus scrofa; settings: pig
# Staphylococcus aureus [26] = assay: Antimicrobial activity against Methicillin-resistant Staphylococcus aureus 43300 assessed as bacterial killing measured after 16 hrs incubation; type: functional
# Escherichia coli [27] = assay: Antimicrobial activity against Escherichia coli 25922 assessed as bacterial killing measured after 16 hrs incubation; type: functional
# Staphylococcus aureus [28] = assay: Antimicrobial activity against Staphylococcus aureus 29213 assessed as bacterial killing measured after 16 hrs incubation; type: functional
# [29] = Antimicrobial activity against Salmonella pullorum C7913 assessed as absence bacterial growth measured after 18 to 24 hrs incubation by NCCLS method; type: functional, Salmonella enterica subsp. enterica serovar Pullorum; settings: Salmonella enterica, time 18-24 hrs
# Escherichia coli [30] = assay: Antimicrobial activity against Escherichia coli 25922 assessed as absence bacterial growth measured after 18 to 24 hrs incubation in presence of ZnCl2 by NCCLS method; type: functional; settings: time 18-24 hrs
# Escherichia coli [31] = assay: Antimicrobial activity against Escherichia coli 25922 assessed as absence bacterial growth measured after 18 to 24 hrs incubation in presence of NH4Cl by NCCLS method; type: functional; settings: time 18-24 hrs
# Staphylococcus aureus [32] = assay: Antimicrobial activity against Staphylococcus aureus 25923 assessed as bacterial killing measured after 16 hrs incubation; type: functional
# Salmonella typhimurium [33] = assay: Antimicrobial activity against Salmonella typhimurium C7731 assessed as absence bacterial growth measured after 18 to 24 hrs incubation by NCCLS method; type: functional, Salmonella enterica subsp. enterica serovar Typhimurium; settings: Salmonella enterica, time 18-24 hrs
# Escherichia coli [34] = assay: Antimicrobial activity against Escherichia coli K88 assessed as bacterial killing measured after 16 hrs incubation; type: functional
# [35] = Hemolytic activity in human RBC at effective concentration at 128 uM measured after 1 hr by microplate reader relative to control; type: toxicity, cell-based, Erythrocyte; settings: human red blood cells (erythrocytes), read-out: Activity
# Listeria monocytogenes [36] = assay: Antimicrobial activity against Listeria monocytogenes 1.10753 assessed as bacterial killing measured after 16 hrs incubation; type: functional
# Enterococcus faecalis [37] = assay: Antimicrobial activity against Enterococcus faecalis 29212 assessed as bacterial killing measured after 16 hrs incubation; type: functional
# Staphylococcus aureus [38] = assay: Antimicrobial activity against Methicillin-resistant Staphylococcus aureus 43300 assessed as absence bacterial growth measured after 18 to 24 hrs incubation by NCCLS method; type: functional; settings: time 18-24 hrs
# Enterococcus faecalis [39] = assay: Antimicrobial activity against Enterococcus faecalis 29212 assessed as absence bacterial growth measured after 18 to 24 hrs incubation by NCCLS method; type: functional; settings: time 18-24 hrs
# Pseudomonas aeruginosa [40] = assay: Antimicrobial activity against Pseudomonas aeruginosa 27853 assessed as absence bacterial growth measured after 18 to 24 hrs incubation by NCCLS method; type: functional; settings: time 18-24 hrs
# Escherichia coli [41] = assay: Antimicrobial activity against Escherichia coli K88 assessed as absence bacterial growth measured after 18 to 24 hrs incubation by NCCLS method; type: functional; settings: time 18-24 hrs
substance,measurement,setting,value
H-MKLWLKGGKLWLKGGKLWLKG-NH2,MIC,Escherichia coli [1],32 µM
same,MIC,Escherichia coli [2],> 32 µM
same,MBC,[3],> 32 µM
same,MIC,Listeria monocytogenes [4],> 32 µM
same,IC50 at 8 h,[5],> 64 µM
same,MIC,Escherichia coli [6],32 µM
same,MIC,Salmonella typhimurium [7],16 µM
same,MIC,Escherichia coli [8],> 32 µM
same,MIC,Staphylococcus aureus [9],> 32 µM
same,MIC,Escherichia coli [10],4 µM
same,HC10,Erythrocyte,128 µM
same,MBC,Bacillus cereus [11],> 32 µM
same,MBC,Acinetobacter baumannii [12],16 µM
same,MBC,Pseudomonas aeruginosa [13],> 32 µM
same,MIC,[14],> 32 µM
same,MIC,Bacillus cereus [15],> 32 µM
same,MIC,Escherichia coli [16],4 µM
same,MBC,[17],2 µM
same,MIC,Escherichia coli [18],16 µM
same,MBC,Salmonella typhimurium [19],16 µM
same,MIC,Staphylococcus aureus [20],> 32 µM
same,MIC,Escherichia coli [21],4 µM
same,IC50 at 8 h,[22],> 64 µM
same,MIC,Acinetobacter baumannii [23],8 µM
same,MBC,Salmonella typhimurium [24],32 µM
same,IC50 at 8 h,[25],41 µM
same,MBC,Staphylococcus aureus [26],> 32 µM
same,MBC,Escherichia coli [27],4 µM
same,MBC,Staphylococcus aureus [28],> 32 µM
same,MIC,[29],2 µM
same,MIC,Escherichia coli [30],4 µM
same,MIC,Escherichia coli [31],4 µM
same,MBC,Staphylococcus aureus [32],> 32 µM
same,MIC,Salmonella typhimurium [33],8 µM
same,MBC,Escherichia coli [34],2 µM
same,"hemolysis at 1 h, 128 µM",[35],< 10%
same,MBC,Listeria monocytogenes [36],> 32 µM
same,MBC,Enterococcus faecalis [37],> 32 µM
same,MIC,Staphylococcus aureus [38],> 32 µM
same,MIC,Enterococcus faecalis [39],> 32 µM
same,MIC,Pseudomonas aeruginosa [40],> 32 µM
same,MIC,Escherichia coli [41],1 µM
H-VKLWLKGGKLWLKGGKLWLKG-NH2,MIC,Escherichia coli [1],16 µM
same,MIC,Escherichia coli [2],> 32 µM
same,MBC,[3],> 32 µM
same,MIC,Listeria monocytogenes [4],> 32 µM
same,IC50 at 8 h,[5],> 64 µM
same,MIC,Escherichia coli [6],32 µM
same,MIC,Salmonella typhimurium [7],8 µM
same,MIC,Escherichia coli [8],> 32 µM
same,MIC,Staphylococcus aureus [9],> 32 µM
same,MIC,Escherichia coli [10],4 µM
same,HC10,Erythrocyte,> 128 µM
same,MBC,Bacillus cereus [11],> 32 µM
same,MBC,Acinetobacter baumannii [12],16 µM
same,MBC,Pseudomonas aeruginosa [13],> 32 µM
same,MIC,[14],> 32 µM
same,MIC,Bacillus cereus [15],> 32 µM
same,MIC,Escherichia coli [16],4 µM
same,MBC,[17],4 µM
same,MIC,Escherichia coli [18],> 32 µM
same,MBC,Salmonella typhimurium [19],16 µM
same,MIC,Staphylococcus aureus [20],> 32 µM
same,MIC,Escherichia coli [21],4 µM
same,IC50 at 8 h,[22],> 64 µM
same,MIC,Acinetobacter baumannii [23],4 µM
same,MBC,Salmonella typhimurium [24],32 µM
same,IC50 at 8 h,[25],60.2 µM
same,MBC,Staphylococcus aureus [26],> 32 µM
same,MBC,Escherichia coli [27],16 µM
same,MBC,Staphylococcus aureus [28],> 32 µM
same,MIC,[29],2 µM
same,MIC,Escherichia coli [30],4 µM
same,MIC,Escherichia coli [31],8 µM
same,MBC,Staphylococcus aureus [32],> 32 µM
same,MIC,Salmonella typhimurium [33],8 µM
same,MBC,Escherichia coli [34],1 µM
same,"hemolysis at 1 h, 128 µM",[35],< 10%
same,MBC,Listeria monocytogenes [36],> 32 µM
same,MBC,Enterococcus faecalis [37],> 32 µM
same,MIC,Staphylococcus aureus [38],> 32 µM
same,MIC,Enterococcus faecalis [39],> 32 µM
same,MIC,Pseudomonas aeruginosa [40],> 32 µM
same,MIC,Escherichia coli [41],1 µM
H-WKLWLKGGKLWLKGGKLWLKG-NH2,MIC,Escherichia coli [1],> 32 µM
same,MIC,Escherichia coli [2],> 32 µM
same,MBC,[3],> 32 µM
same,MIC,Listeria monocytogenes [4],> 32 µM
same,IC50 at 8 h,[5],> 64 µM
same,MIC,Escherichia coli [6],> 32 µM
same,MIC,Salmonella typhimurium [7],4 µM
same,MIC,Escherichia coli [8],> 32 µM
same,MIC,Staphylococcus aureus [9],> 32 µM
same,MIC,Escherichia coli [10],4 µM
same,HC10,Erythrocyte,128 µM
same,MBC,Bacillus cereus [11],> 32 µM
same,MBC,Acinetobacter baumannii [12],4 µM
same,MBC,Pseudomonas aeruginosa [13],16 µM
same,MIC,[14],16 µM
same,MIC,Bacillus cereus [15],> 32 µM
same,MIC,Escherichia coli [16],8 µM
same,MBC,[17],2 µM
same,MIC,Escherichia coli [18],16 µM
same,MBC,Salmonella typhimurium [19],8 µM
same,MIC,Staphylococcus aureus [20],> 32 µM
same,MIC,Escherichia coli [21],4 µM
same,IC50 at 8 h,[22],> 64 µM
same,MIC,Acinetobacter baumannii [23],4 µM
same,MBC,Salmonella typhimurium [24],32 µM
same,IC50 at 8 h,[25],12.9 µM
same,MBC,Staphylococcus aureus [26],> 32 µM
same,MBC,Escherichia coli [27],4 µM
same,MBC,Staphylococcus aureus [28],8 µM
same,MIC,[29],1 µM
same,MIC,Escherichia coli [30],4 µM
same,MIC,Escherichia coli [31],8 µM
same,MBC,Staphylococcus aureus [32],> 32 µM
same,MIC,Salmonella typhimurium [33],4 µM
same,MBC,Escherichia coli [34],1 µM
same,"hemolysis at 1 h, 128 µM",[35],< 10%
same,MBC,Listeria monocytogenes [36],> 32 µM
same,MBC,Enterococcus faecalis [37],> 32 µM
same,MIC,Staphylococcus aureus [38],8 µM
same,MIC,Enterococcus faecalis [39],> 32 µM
same,MIC,Pseudomonas aeruginosa [40],8 µM
same,MIC,Escherichia coli [41],1 µM

# Reference: ChEMBL document CHEMBL5518215, “Unlocking Antibacterial Potential: Key-Site-Based Regulation of Antibacterial Spectrum of Peptides” (J Med Chem, 2024)
